From patent US20250042937A1, “RAPID, GREEN, DISULFIDE BOND FORMATION IN WATER USING DICYANOCOBINAMIDE” (Syracuse University, priority 2023, published 2025)

Tests used:
rat retinas = conditions: low doses (2-5%); cited from earlier work
oxytocin receptor = target: T1, oxytocin receptor (Homo sapiens, UniProt P30559); assay: screening at the oxytocin receptor (agonism) after Cbi oxidation; type: cell-based; conditions: peptide oxidized with Cbi; free or conjugated to B12
T1 sequence (P30559 1-389): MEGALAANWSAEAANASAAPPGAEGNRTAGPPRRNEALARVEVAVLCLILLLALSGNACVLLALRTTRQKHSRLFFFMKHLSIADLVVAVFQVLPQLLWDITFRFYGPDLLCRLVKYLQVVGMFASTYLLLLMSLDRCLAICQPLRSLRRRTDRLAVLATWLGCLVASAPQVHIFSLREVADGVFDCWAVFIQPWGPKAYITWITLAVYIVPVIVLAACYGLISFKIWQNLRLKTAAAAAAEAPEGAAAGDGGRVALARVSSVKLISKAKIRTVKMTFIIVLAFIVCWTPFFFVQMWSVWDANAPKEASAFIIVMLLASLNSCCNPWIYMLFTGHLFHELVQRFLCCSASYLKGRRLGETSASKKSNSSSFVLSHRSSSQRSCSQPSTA

Row | Compound | cytotoxicity (rat retinas) | Kd (oxytocin receptor) [nM]
1 | C[S+](C)[O-] [DMSO, dimethyl sulfoxide] | cytotoxic | 
2 | CC[C@H](C)[C@@H]1NC(=O)[C@H](Cc2ccc(O)cc2)NC(=O)[C@@H](N)CSSC[C@@H](C(=O)N2CCC[C@H]2C(=O)N[C@@H](CCCCN=[N+]=[N-])C(=O)NCC(N)=O)NC(=O)[C@H](CC(N)=O)NC(=O)[C@H](CCC(N)=O)NC1=O [OT] |  | 4.39
3 | OT after conjugation to B12: OT peptide conjugated to vitamin B12 |  | 4.63
